Active and inactive are the calls of the source.
Legend:
[1] = Luminescence Cell-Based Dose Confirmation HTS to Identify Inhibitors of Platelet Dense Granule Release. [Related pubchem assays: 1663 (Primary HTS), 1678 (Summary of Project)]; assay type: functional
[2] = target: Luciferin 4-monooxygenase (Photinus pyralis, UniProt P08659); test: inhibition of purified Photinus pyralis luciferase – biochemical, luminescence, dose response (AID 1891)
[3] = target: T1, RNA-binding protein pos-1 (Caenorhabditis elegans, UniProt G5EF15); test: disruptors of C. elegans POS-1 RNA interaction – biochemical, fluorescence polarization, dose response (AID 1964);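 note: purified POS-1 fused to maltose binding protein made in E. coli; potency of compounds blocking POS-1 binding to fluorescent RNA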
T1 sequence (G5EF15 whole entry): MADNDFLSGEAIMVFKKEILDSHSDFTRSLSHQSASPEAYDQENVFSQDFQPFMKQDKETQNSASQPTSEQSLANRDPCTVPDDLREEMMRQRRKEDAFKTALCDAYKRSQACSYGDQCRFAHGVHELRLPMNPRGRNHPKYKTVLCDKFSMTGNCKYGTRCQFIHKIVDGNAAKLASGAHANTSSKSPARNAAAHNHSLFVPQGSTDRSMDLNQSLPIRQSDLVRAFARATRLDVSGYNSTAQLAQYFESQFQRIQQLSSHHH

[4] = target: T2, Zinc finger protein mex-5 (Caenorhabditis elegans, UniProt Q9XUB2); test: potency of MEX-5 RNA-binding blockers – biochemical, C. elegans, fluorescence polarization, dose response (AID 1960)
T2 sequence (Q9XUB2 whole entry): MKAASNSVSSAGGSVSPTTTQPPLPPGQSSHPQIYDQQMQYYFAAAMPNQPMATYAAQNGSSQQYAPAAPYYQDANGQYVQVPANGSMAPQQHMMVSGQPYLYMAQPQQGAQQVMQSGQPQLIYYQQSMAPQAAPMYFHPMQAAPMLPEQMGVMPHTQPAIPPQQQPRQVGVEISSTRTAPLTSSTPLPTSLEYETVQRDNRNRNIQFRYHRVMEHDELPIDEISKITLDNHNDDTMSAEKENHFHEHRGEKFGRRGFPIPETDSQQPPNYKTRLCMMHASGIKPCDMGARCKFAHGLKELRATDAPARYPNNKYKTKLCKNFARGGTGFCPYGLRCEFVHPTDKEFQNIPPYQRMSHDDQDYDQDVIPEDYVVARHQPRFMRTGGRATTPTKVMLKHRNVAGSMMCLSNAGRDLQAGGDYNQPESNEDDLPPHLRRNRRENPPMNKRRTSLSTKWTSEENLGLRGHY

[5] = alpha-synuclein stem-loop luciferase translation blockers – H4 neuroglioma cells, luminescence, confirmation (AID 1988); assay type: functional, cell-based
[6] = luciferase reporter signal suppression in cells – H4 neuroglioma cells, luminescence, dose response (AID 1990); assay type: functional, cell-based
[7] = Luminescence Cell-Based Dose Response HTS to Identify Inhibitors of 5'UTR Stem-Loop Driven Prion Protein mRNA Translation in H4 Neuroglioblastoma Cells. [Related pubchem assays: 1827 (Project Summary), 1813 (Primary HTS)]; assay type: functional
Cytochrome P450 2C9 = Cytochrome P450 2C9 (Homo sapiens, UniProt P11712)
Chain of Cytochrome P450 2C9 (P11712 whole entry): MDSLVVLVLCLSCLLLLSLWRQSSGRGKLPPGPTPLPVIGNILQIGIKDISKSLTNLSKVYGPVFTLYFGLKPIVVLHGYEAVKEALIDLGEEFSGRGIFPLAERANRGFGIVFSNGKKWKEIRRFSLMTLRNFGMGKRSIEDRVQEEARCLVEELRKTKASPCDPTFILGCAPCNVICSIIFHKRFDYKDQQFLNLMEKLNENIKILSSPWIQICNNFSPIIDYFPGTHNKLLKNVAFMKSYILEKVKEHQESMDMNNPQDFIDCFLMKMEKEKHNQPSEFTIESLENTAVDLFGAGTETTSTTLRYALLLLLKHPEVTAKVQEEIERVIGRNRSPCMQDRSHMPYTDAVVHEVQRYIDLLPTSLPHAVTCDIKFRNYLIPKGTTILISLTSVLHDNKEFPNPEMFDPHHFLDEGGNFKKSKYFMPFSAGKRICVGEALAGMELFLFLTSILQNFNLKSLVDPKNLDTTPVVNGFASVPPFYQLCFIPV

[8] = test system: Streptococcus sp. 'group A'; test: Streptococcus pyogenes SK(-)GAS viability under kanamycin – luminescence, BacTiterGlo, confirmation, counter-screen for streptokinase expression inhibitor project, dose response (AID 1900); assay type: functional, organism-based
Streptococcus = test: GAS UMAA2166 growth inhibition – luminescence, BacTiterGlo, counter-screen for streptokinase expression inhibitor project, dose response (AID 1915); assay type: functional, organism-based;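 note: potency for reduction of bacterial viability or growth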
[9] = NIH3T3 cell viability loss – ATP luminescence, mouse fibroblasts, counter-screen, dose response (AID 2010); assay type: functional, cell-based;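 note: cells exposed to compound for about 90 hours before reading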
[10] = Trypanosoma cruzi growth suppression in host cells – NIH3T3 host cells, beta-gal luminescence, confirmation (AID 2044); assay type: functional, cell-based;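 note: intracellular parasites grown in NIH/3T3 mouse fibroblasts as host cells; luminescent beta-galactosidase reporter signal from transgenic T. cruzi replicating inside host cells; inhibitors lower the luminescence signal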
Streptokinase A = target: T3, Streptokinase A (Streptococcus pyogenes serotype M1, UniProt P10520); test: viability-normalized secreted streptokinase activity reduction – plasminogen activation absorbance, OD405, dose response (AID 1914); assay type: functional, Streptococcus pyogenes M1 GAS;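 note: secreted streptokinase activity via plasminogen activation per viability signal from cell pellet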
T3 sequence (P10520 whole entry): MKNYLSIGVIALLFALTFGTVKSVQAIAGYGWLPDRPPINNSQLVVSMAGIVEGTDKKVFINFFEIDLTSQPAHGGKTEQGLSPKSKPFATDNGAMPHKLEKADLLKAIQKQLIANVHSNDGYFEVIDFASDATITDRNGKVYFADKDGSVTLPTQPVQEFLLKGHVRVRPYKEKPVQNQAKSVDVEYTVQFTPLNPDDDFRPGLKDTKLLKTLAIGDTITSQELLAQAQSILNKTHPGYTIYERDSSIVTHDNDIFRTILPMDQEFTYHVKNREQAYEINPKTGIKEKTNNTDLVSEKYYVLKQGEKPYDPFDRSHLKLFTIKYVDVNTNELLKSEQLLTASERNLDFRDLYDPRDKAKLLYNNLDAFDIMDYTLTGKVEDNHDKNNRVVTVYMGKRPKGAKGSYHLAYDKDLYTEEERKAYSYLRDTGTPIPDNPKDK

Cytochrome P450 2C19 = Cytochrome P450 2C19 (Homo sapiens, UniProt P33261); test: Cytochrome panel assay with activity outcomes. Panel member name: p450-cyp2c19 Compounds with AC50 equal or less than 10 uM are considered active; assay type: functional; settings: read-out: AC50
Chain of Cytochrome P450 2C19 (P33261 whole entry): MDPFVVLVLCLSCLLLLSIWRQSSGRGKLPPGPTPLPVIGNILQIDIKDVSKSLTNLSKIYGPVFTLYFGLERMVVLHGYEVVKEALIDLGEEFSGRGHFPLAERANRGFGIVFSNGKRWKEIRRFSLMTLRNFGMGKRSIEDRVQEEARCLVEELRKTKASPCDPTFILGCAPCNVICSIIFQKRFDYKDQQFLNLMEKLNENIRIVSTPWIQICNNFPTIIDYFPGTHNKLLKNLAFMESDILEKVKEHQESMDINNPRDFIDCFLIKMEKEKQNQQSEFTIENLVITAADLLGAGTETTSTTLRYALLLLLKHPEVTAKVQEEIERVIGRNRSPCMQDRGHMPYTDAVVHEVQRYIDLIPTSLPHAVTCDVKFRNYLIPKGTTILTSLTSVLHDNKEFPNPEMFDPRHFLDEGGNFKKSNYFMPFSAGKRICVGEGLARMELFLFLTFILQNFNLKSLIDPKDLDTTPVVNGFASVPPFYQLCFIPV

Cytochrome P450 1A2 = target: T4, Cytochrome P450 1A2 (Homo sapiens, UniProt P05177);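 note: PubChem cytochrome P450 panel assay, CYP1A2 panel member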
T4 sequence (P05177 whole entry): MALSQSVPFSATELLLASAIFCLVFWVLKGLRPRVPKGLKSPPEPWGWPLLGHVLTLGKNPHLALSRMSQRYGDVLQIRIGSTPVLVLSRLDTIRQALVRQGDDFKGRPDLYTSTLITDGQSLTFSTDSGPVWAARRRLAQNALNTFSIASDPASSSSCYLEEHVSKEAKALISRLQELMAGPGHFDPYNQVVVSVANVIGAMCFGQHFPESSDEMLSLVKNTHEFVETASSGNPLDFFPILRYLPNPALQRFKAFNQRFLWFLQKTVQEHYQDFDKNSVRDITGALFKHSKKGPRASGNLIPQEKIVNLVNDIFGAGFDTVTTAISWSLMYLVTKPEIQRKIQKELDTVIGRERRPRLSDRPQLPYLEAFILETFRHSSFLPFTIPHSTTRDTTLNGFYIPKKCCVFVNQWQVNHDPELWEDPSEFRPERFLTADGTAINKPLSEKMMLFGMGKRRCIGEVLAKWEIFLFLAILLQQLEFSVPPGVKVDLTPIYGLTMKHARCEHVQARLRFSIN

Cytochrome P450 3A4 = Cytochrome P450 3A4 (Homo sapiens, UniProt P08684);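 note: CYP3A4 tested as one member of a cytochrome P450 panel screen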
Chain of Cytochrome P450 3A4 (P08684 whole entry): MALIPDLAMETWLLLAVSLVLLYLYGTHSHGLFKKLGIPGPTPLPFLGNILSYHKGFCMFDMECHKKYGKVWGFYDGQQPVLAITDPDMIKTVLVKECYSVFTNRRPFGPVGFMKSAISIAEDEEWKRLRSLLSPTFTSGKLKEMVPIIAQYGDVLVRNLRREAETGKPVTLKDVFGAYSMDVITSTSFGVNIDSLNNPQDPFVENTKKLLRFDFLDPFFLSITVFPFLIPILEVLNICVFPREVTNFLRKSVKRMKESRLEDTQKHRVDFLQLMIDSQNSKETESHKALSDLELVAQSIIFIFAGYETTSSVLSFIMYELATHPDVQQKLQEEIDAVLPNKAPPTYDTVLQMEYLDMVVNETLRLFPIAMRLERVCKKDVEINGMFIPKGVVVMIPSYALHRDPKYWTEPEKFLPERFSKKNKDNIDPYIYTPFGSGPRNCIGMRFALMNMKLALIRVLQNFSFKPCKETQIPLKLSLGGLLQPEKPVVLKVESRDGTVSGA

Chain of Luciferin 4-monooxygenase (P08659 whole entry, the tested form may be a part): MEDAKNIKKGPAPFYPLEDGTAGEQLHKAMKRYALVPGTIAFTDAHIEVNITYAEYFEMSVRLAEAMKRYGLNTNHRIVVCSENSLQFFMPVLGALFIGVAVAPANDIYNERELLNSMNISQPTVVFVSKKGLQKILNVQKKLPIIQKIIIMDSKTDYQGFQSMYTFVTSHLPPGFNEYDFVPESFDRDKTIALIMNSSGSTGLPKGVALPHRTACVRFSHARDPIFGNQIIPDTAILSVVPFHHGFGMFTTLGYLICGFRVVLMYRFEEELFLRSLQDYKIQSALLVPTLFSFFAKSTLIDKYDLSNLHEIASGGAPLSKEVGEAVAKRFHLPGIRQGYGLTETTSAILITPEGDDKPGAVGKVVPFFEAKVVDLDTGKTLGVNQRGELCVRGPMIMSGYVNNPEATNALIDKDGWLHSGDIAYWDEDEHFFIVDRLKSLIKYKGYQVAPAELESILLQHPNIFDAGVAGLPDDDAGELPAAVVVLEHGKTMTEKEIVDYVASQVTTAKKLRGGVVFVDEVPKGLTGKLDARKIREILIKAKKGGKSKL

## O=C(COC(=O)c1ccc(Cl)c(S(=O)(=O)NCc2ccccc2)c1)NCC1CCCO1 (stereo not given)
[1]
  EC50: > 112 µM (not active)
[2]
  EC50: > 112 µM (not active)

## CC(=O)N/C=C1\C(=O)N(C)C(=O)C(C#N)=C1C
[3]
  EC50: 36.1 µM (active)
[4]
  EC50: 34.9 µM (active)

## CC1=C(C#N)C(=O)N(C)C(=O)/C1=C\NNc1ccc(C)c(C)c1
[3]
  EC50: > 300 µM (not active)
[4]
  EC50: 40.6 µM (active)

## COc1ccc(CN2CCCC(C(=O)c3ccc(Cl)cc3)C2)cc1Cn1cccn1 (stereo not given)
[5]
  EC50: > 120 µM (not active)
[6]
  EC50: > 120 µM (not active)
[7]
  EC50: > 120 µM (not active)

## N#Cc1c(N)nc(SCc2ccccc2)c(C#N)c1-c1ccco1
[3]
  EC50: > 300 µM (not active)
[4]
  EC50: > 300 µM (not active)

## CC(N)Cc1ccccc1Sc1ccc(O)cc1 (stereo not given)
[1]
  EC50: > 112 µM (not active)
[2]
  EC50: > 112 µM (not active)
Cytochrome P450 2C9
  AC50: 17.8 µM (inconclusive)

## COc1cc(C2C(C#N)=C(N)OC3=C2C(=O)CC(C)(C)C3)cc2c1OCO2 (stereo not given)
[3]
  EC50: > 300 µM (not active)
[4]
  EC50: > 300 µM (not active)

## O=Cc1cn(Cc2ccc(F)cc2Cl)c2ccccc12
[5]
  EC50: 12.4 µM (active)
[6]
  EC50: 16.2 µM (active)
[7]
  EC50: 16.8 µM (active)

## N#C/C(=N\Nc1ccc(Cl)cc1)C(=O)c1ccsc1
[3]
  EC50: 81.6 µM (active)
[4]
  EC50: 10.8 µM (active)

## CC(C)CNC(=O)C1Nc2ccccc2C2C=CCC12 (stereo not given)
[3]
  EC50: > 300 µM (not active)
[4]
  EC50: > 300 µM (not active)

## CCOC(=O)c1cnc2c(OC)cccc2c1N1CC(C)CC(C)C1 (stereo not given)
[5]
  EC50: 14.4 µM (active)
[6]
  EC50: 13.9 µM (active)
[7]
  EC50: > 120 µM (not active)

## Cc1csc(NC(=O)c2cc3c(s2)CCCCC3)n1
[5]
  EC50: 3.58 µM (active)
[7]
  EC50: 2.57 µM (active)

## COc1ccc(-c2cc(C(F)(F)F)nc(NCc3cccs3)n2)cc1
[8]
  EC50: 3.73 µM (active)
Streptococcus
  EC50: > 150 µM (not active)
[9]
  EC50: > 60 µM (not active)
[10]
  EC50: 2.19 µM (active)
Streptokinase A
  EC50: 13.8 µM (active)

## O=C(NC1CC1)C1=C[C@@H](c2coc3ccccc3c2=O)C[C@@H](OCc2ccc(CO)cc2)O1
[5]
  EC50: > 120 µM (not active)
[6]
  EC50: > 120 µM (not active)
[7]
  EC50: > 120 µM (not active)

## COc1ccc(-n2nc3c(=O)[nH][nH]c3cc2=O)cc1
[3]
  EC50: 13.1 µM (active)
[4]
  EC50: 3.67 µM (active)

## CC(C)(C)C(Cn1ccnc1)NC(=O)c1ccc2nc(C3CC3)oc2c1 (stereo not given)
[1]
  EC50: > 112 µM (not active)
[2]
  EC50: > 112 µM (not active)

## N#C/C(=C\N1CCN(Cc2ccc3c(c2)OCO3)CC1)c1nc2ccccc2s1
[3]
  EC50: > 300 µM (not active)
[4]
  EC50: > 300 µM (not active)

## C/C(=N\NC(=O)C1(C)CC1(Br)Br)c1ccc(NC(=O)c2ccc(C)o2)cc1 (stereo not given)
[1]
  EC50: > 112 µM (not active)
[2]
  EC50: > 112 µM (not active)

## Cc1c([N+](=O)[O-])c(N)nn1C
[5]
  EC50: > 120 µM (not active)
[6]
  EC50: > 120 µM (not active)
[7]
  EC50: > 120 µM (not active)

## COc1ccc(C2=Nn3c(nnc3-c3cc(C)[nH]n3)SC2)cc1
[1]
  EC50: > 112 µM (not active)
[2]
  EC50: > 112 µM (not active)

## CC(=O)N(Cc1c(C#N)c2ccccc2n1C)c1ccccc1
[1]
  EC50: > 112 µM (not active)
[2]
  EC50: > 112 µM (not active)

## CCOC(=O)N1CCN(S(=O)(=O)c2ccc(C(=O)Nc3ccc(F)cc3F)cc2)CC1
[5]
  EC50: 7.91 µM (active)
Cytochrome P450 2C19
  AC50: 25.1 µM (inconclusive)
Cytochrome P450 1A2
  AC50: 6.31 µM (inconclusive)
[6]
  EC50: 10.9 µM (active)
[7]
  EC50: > 120 µM (not active)
Cytochrome P450 3A4
  AC50: 14.1 µM (inconclusive)

## COc1cc2c3nnc(-c4ccccc4)c-3cn(Cc3ccc(F)cc3)c2cc1OC
[3]
  EC50: > 300 µM (not active)
[4]
  EC50: > 300 µM (not active)

## CC1CCN(S(=O)(=O)c2ccc3c(c2)N(CC(=O)N(C)Cc2ccco2)C(=O)CO3)CC1
[5]
  EC50: 21.2 µM (active)
[6]
  EC50: > 120 µM (not active)
[7]
  EC50: > 120 µM (not active)

## Cc1sc(-n2c(C)cc(C=C3C(=O)NC(=O)NC3=O)c2C)c(C#N)c1C
[3]
  EC50: > 300 µM (not active)
[4]
  EC50: > 300 µM (not active)

## CCCCNC(=O)c1cn(CC(C)C)c(=O)c2c1c1ccccc1n2C
[8]
  EC50: 15.5 µM (active)
Streptococcus
  EC50: > 150 µM (not active)
Streptokinase A
  EC50: > 150 µM (not active)

## Cc1cc(C=C2C(=O)N(C)C(=S)N(C)C2=O)c(C)n1C1CCCC1
[3]
  EC50: 189 µM (active)
[4]
  EC50: 129 µM (active)

## Cc1ccnn1CC(=O)N/N=C/c1c[nH]nc1-c1ccccc1
[1]
  EC50: > 112 µM (not active)
[2]
  EC50: > 112 µM (not active)

## O=C(Nc1ccc2oc(-c3ccccc3)nc2c1)C1CCCO1 (stereo not given)
[1]
  EC50: 25.1 µM (active)
[2]
  EC50: 70.4 µM (active)

## Cc1ccc(S(=O)(=O)NNC(=O)c2ccccc2-n2cccc2)cc1
[5]
  EC50: > 120 µM (not active)
[6]
  EC50: > 120 µM (not active)
[7]
  EC50: > 120 µM (not active)

## COc1cccc(C(=O)c2cc3ccc(O)cc3oc2=O)c1
[1]
  EC50: 1.28 µM (active)
[2]
  EC50: 0.571 µM (active)

## NC(=O)c1cc(C(=O)Cc2ccccc2)c[nH]1
[8]
  EC50: 2.27 µM (active)
Streptococcus
  EC50: > 150 µM (not active)
Streptokinase A
  EC50: 107 µM (active)

## Cc1ccc(-c2cc(N)n(Cc3ccc(Cl)cc3)n2)cc1
[1]
  EC50: > 112 µM (not active)
[2]
  EC50: > 112 µM (not active)

## NC(=O)c1ccc[n+](Cc2ccccc2)c1
[1]
  EC50: > 112 µM (not active)
[2]
  EC50: > 112 µM (not active)

From ChEMBL document CHEMBL1201862, “PubChem BioAssay data set” (2004)
